Reference: publication PMC4335020, “Single Oral Dose Pharmacokinetics of Decursin and Decursinol Angelate in Healthy Adult Men and Women” (PLoS ONE, 2015)
Like-named read-outs stand apart in the source and are kept apart here.

Test: Single oral dose human plasma pharmacokinetics of D, DA and DOH after Cogni.Q
Format: in vivo
Conditions: human, plasma
From the text: Ten healthy male and 10 female subjects were recruited by public announcement in Amarillo, TX, from January 2013 to April 2013 (see Fig. 1 CONSORT diagram). The sample size for each gender was chosen without power calculation due to the lack of prior knowledge of PK parameter variance in humans. After receiving informed consent verbally and in writing, the health status of each candidate was confirmed by health questionnaire, plasma biochemistry (hepatic and renal functions), complete blood cell count (CBC), and a physical examination by a participating academic physician. Subjects with diabetes, or pregnant, perinatal and breastfeeding women were excluded. For the 48 hours preceding study visit until the final blood draw, all subjects were instructed to avoid taking any prescription or nonprescription drugs, vitamins, and herbal/dietary supplements. Each subject was compensated for participating in the study per TTUHSC IRB approved rate.
Eligible subjects arrived at our clinical facility at 0700 (7:00 am) on the test day after a fast beginning at 2200 (10:00 pm) the previous night. After a brief review of vital signs, the nurse placed an intravenous (IV) line with saline drip in one arm of each subject. A baseline pre-dose (hour 0) blood sample was drawn through the IV line; after that subjects swallowed four Cogni.Q vegicaps with 240 mL of water at hour 0 under direct supervision. Subjects stayed at the clinical facility in their room for the next 12 hours, returning at 24 and 48 hours. Blood was drawn at baseline (hour 0) and at 0.5, 1, 2, 3, 4, 6, 8, 12, 24 and 48 hours after dosing into Vacutainer Blood Collection Tube (Becton-Dickinson, Franklin Lakes, NJ. Product Number: 367874, Sodium heparin was used as anti-coagulant). Water was allowed as desired except for within the first hour after Cogni.Q consumption. All subjects received standardized meals at post-dose hours 4.5 and 9.5 but no food was allowed for at least the first 4 hours post-dose.
Plasma was prepared by centrifuging the heparinized blood at 1000 g for 15 minutes at room temperature. Urine samples (40mL) were collected within time spans of 0–4, 4–8, 8–12 and 12–24 hours (total volume of urine was recorded). All plasma and urine samples were put on dry ice immediately and then stored at -80°C freezer until analysis.
Plasma samples were extracted with a validated solid supported liquid extraction (SLE) method facilitated with a positive pressure manifold (Biotage, Charlotte, NC). Briefly, 100 μL of plasma sample was spiked with 5 μL of 10 ng/μL prednisolone (IS), diluted with 200 μL of LC-MS grade water, mixed and loaded onto ISOLUTE SLE+ 400 μL Array Well cartridges (Biotage, Charlotte, NC). A pulse of minimum positive pressure was applied to facilitate the samples absorption into the cartridges. After the samples were allowed to absorb for 5 min, the compounds were eluted with 2×500 μL tert-butyl methyl ether. The eluent was dried in a Speedvac and the resulting residue was reconstituted in 50 μL of methanol for UHPLC-MS/MS analysis.
Eight-point calibration curves were constructed for D, DA and DOH, at concentrations of 0.1, 0.5, 1, 5, 10, 20, 50 and 100 μg/L for D and DA, and at concentrations of 1, 5, 10, 50, 100, 200, 500 and 1000 μg/L for DOH, respectively. The linear range was 0.1–100 μg/L (0.3–300 nmol/L), 0.1–100 μg/L (0.3–300 nmol/L) and 1–1000 μg/L (4–4000 nmol/L) for D, DA and DOH, respectively. The inter- and intra-assay CV were lower than 6.5% and the accuracy was between 90–105%. Calibration curve was run for each batch of samples analyzed. The mean calibration curve correlation coefficient (r) for D, DA and DOH was 0.999, 0.999 and 0.998, respectively (data from 7–10 calibration curves). In addition, 70% of the plasma samples were extracted and analyzed twice, the data from two replicate analyses were nearly identical and combined for final data analyses and presentation. […]

SMILES: CC1(C)Oc2cc3oc(=O)ccc3cc2C[C@@H]1O [DOH, decursinol]
- half-life (oral, 4 Cogni.Q vegicaps, subject S9 (158 lb), read-out: Terminal t1/2, h (converted)): 7.7 h
- Tmax (oral, 4 Cogni.Q vegicaps, subject S9 (158 lb), read-out: Tmax): 3 h
- AUC(0-t) (oral, 4 Cogni.Q vegicaps, subject S10 (185 lb), read-out: AUC0-48h): 17400 nmol·h/L
- Cmax (oral, 4 Cogni.Q vegicaps, subject S10 (185 lb), read-out: Cmax): 1610 nM
- half-life (oral, 4 Cogni.Q vegicaps, subject S10 (185 lb), read-out: Terminal t1/2, h (converted)): 8.8 h
- Tmax (oral, 4 Cogni.Q vegicaps, subject S10 (185 lb), read-out: Tmax): 2 h
- AUC(0-t) (oral, 4 Cogni.Q vegicaps, subject S11 (178 lb), read-out: AUC0-48h): 37300 nmol·h/L
- Cmax (oral, 4 Cogni.Q vegicaps, subject S11 (178 lb), read-out: Cmax): 3420 nM
- half-life (oral, 4 Cogni.Q vegicaps, subject S11 (178 lb), read-out: Terminal t1/2, h (converted)): 5 h
- Tmax (oral, 4 Cogni.Q vegicaps, subject S11 (178 lb), read-out: Tmax): 2 h
- AUC(0-t) (oral, 4 Cogni.Q vegicaps, subject S12 (169 lb), read-out: AUC0-48h): 29100 nmol·h/L
- Cmax (oral, 4 Cogni.Q vegicaps, subject S12 (169 lb), read-out: Cmax): 2590 nM
- half-life (oral, 4 Cogni.Q vegicaps, subject S12 (169 lb), read-out: Terminal t1/2, h (converted)): 7.9 h
- Tmax (oral, 4 Cogni.Q vegicaps, subject S12 (169 lb), read-out: Tmax): 4 h
- AUC(0-t) (oral, 4 Cogni.Q vegicaps, subject S13 (192 lb), read-out: AUC0-48h): 26100 nmol·h/L
- Cmax (oral, 4 Cogni.Q vegicaps, subject S13 (192 lb), read-out: Cmax): 2420 nM
- half-life (oral, 4 Cogni.Q vegicaps, subject S13 (192 lb), read-out: Terminal t1/2, h (converted)): 6 h
- Tmax (oral, 4 Cogni.Q vegicaps, subject S13 (192 lb), read-out: Tmax): 2 h
- AUC(0-t) (oral, 4 Cogni.Q vegicaps, subject S14 (200 lb), read-out: AUC0-48h): 25700 nmol·h/L
- Cmax (oral, 4 Cogni.Q vegicaps, subject S14 (200 lb), read-out: Cmax): 3340 nM
- half-life (oral, 4 Cogni.Q vegicaps, subject S14 (200 lb), read-out: Terminal t1/2, h (converted)): 5.3 h
- Tmax (oral, 4 Cogni.Q vegicaps, subject S14 (200 lb), read-out: Tmax): 2 h
- AUC(0-t) (oral, 4 Cogni.Q vegicaps, subject S15 (177 lb), read-out: AUC0-48h): 26100 nmol·h/L
- Cmax (oral, 4 Cogni.Q vegicaps, subject S15 (177 lb), read-out: Cmax): 4020 nM
- half-life (oral, 4 Cogni.Q vegicaps, subject S15 (177 lb), read-out: Terminal t1/2, h (converted)): 4.5 h
- Tmax (oral, 4 Cogni.Q vegicaps, subject S15 (177 lb), read-out: Tmax): 1 h
- Tmax (oral, 4 Cogni.Q vegicaps, subject S16 (175 lb), read-out: Tmax): 2 h
- AUC(0-t) (oral, 4 Cogni.Q vegicaps, subject S17 (147 lb), read-out: AUC0-48h): 46700 nmol·h/L
- Cmax (oral, 4 Cogni.Q vegicaps, subject S17 (147 lb), read-out: Cmax): 3740 nM
- half-life (oral, 4 Cogni.Q vegicaps, subject S17 (147 lb), read-out: Terminal t1/2, h (converted)): 10.2 h
- Tmax (oral, 4 Cogni.Q vegicaps, subject S17 (147 lb), read-out: Tmax): 2 h
- half-life (oral, 4 Cogni.Q vegicaps, subject S18 (180 lb), outlier, excluded from means, read-out: Terminal t1/2, h (converted)): 16 h
- AUC(0-t) (oral, 4 Cogni.Q vegicaps, subject S18 (180 lb), read-out: AUC0-48h): 16500 nmol·h/L
- Cmax (oral, 4 Cogni.Q vegicaps, subject S18 (180 lb), read-out: Cmax): 1160 nM
- Tmax (oral, 4 Cogni.Q vegicaps, subject S18 (180 lb), read-out: Tmax): 3 h
- AUC(0-t) (oral, 4 Cogni.Q vegicaps, subject S19 (130 lb), read-out: AUC0-48h): 21400 nmol·h/L
- Cmax (oral, 4 Cogni.Q vegicaps, subject S19 (130 lb), read-out: Cmax): 2270 nM
- half-life (oral, 4 Cogni.Q vegicaps, subject S19 (130 lb), read-out: Terminal t1/2, h (converted)): 6.6 h
- Tmax (oral, 4 Cogni.Q vegicaps, subject S19 (130 lb), read-out: Tmax): 6 h
- half-life (oral, subject S16 (175 lb), outlier, excluded from means, read-out: Terminal t1/2, h (converted)): 15 h
- AUC(0-t) (oral, subject S16 (175 lb), read-out: AUC0-48h): 16300 nmol·h/L
- Cmax (oral, subject S16 (175 lb), read-out: Cmax): 1800 nM
- AUC(0-t) (oral, subject S20 (200 lb), read-out: AUC0-48h): 17900 nmol·h/L
- Cmax (oral, subject S20 (200 lb), read-out: Cmax): 1330 nM
- half-life (oral, subject S20 (200 lb), read-out: Terminal t1/2, h (converted)): 9.6 h
- Tmax (oral, subject S20 (200 lb), read-out: Tmax): 2 h
- AUC(0-t) (male, oral, 4 Cogni.Q vegicaps, Men n=10 (S1 Table), read-out: AUC0-48h, Mean): 22500 nmol·h/L
- Cmax (male, oral, 4 Cogni.Q vegicaps, Men n=10 (S1 Table), read-out: Cmax, nM, Mean): 2350 nM
- Tmax (male, oral, 4 Cogni.Q vegicaps, Men n=10 (S1 Table), read-out: Tmax, h, Mean): 2.4 h
- half-life (male, oral, Men, outliers excluded (S1 Table), read-out: Terminal t1/2, h, Mean (converted)): 6.6 h
- AUC(0-t) (male, po, Men N = 10, single oral dose Cogni.Q, read-out: AUC0–48h, h.nmol/L Mean (SD)): 22500 nmol·h/L
- Cmax (male, po, Men N = 10, single oral dose Cogni.Q, read-out: Cmax, nmol/L, Mean (SD)): 2350 nM
- Tmax (male, po, Men N = 10, single oral dose Cogni.Q, read-out: Tmax, h, Mean (SD)): 2.4 h
- half-life (male, po, Men, outlier subjects excluded, single oral dose Cogni.Q, read-out: T1/2, h, terminal Mean (SD) (converted)): 6.6 h
